Reference: ChEMBL document CHEMBL1773061, “Chiral sulfoxides as metabolites of 2-thioimidazole-based p38α mitogen-activated protein kinase inhibitors: enantioselective synthesis and biological evaluation” (J Med Chem, 2011)

What was measured:
Assay type in all cases: tissue-based
[1] = biological target: T1, Mitogen-activated protein kinase 14 (Homo sapiens, UniProt Q16539); assay: Inhibition of p38 alpha MAPK in human whole blood assessed as phosphorylation of ATF-2 by immunosorbent non-radioactive enzyme assay relative to SB203580
[2] = biological target: T1, Mitogen-activated protein kinase 14; assay: Inhibition of p38 alpha MAPK in human whole blood assessed as suppression of LPS-induced TNF-alpha release by immunosorbent non-radioactive enzyme assay
[3] = biological target: T1, Mitogen-activated protein kinase 14; assay: Inhibition of p38 alpha MAPK in human whole blood assessed as phosphorylation of ATF-2 by immunosorbent non-radioactive enzyme assay
[4] = biological target: T1, Mitogen-activated protein kinase 14; assay: Inhibition of p38 alpha MAPK in human whole blood assessed as suppression of LPS-induced TNF-alpha release by immunosorbent non-radioactive enzyme assay relative to SB203580

T1 sequence (Q16539 whole entry): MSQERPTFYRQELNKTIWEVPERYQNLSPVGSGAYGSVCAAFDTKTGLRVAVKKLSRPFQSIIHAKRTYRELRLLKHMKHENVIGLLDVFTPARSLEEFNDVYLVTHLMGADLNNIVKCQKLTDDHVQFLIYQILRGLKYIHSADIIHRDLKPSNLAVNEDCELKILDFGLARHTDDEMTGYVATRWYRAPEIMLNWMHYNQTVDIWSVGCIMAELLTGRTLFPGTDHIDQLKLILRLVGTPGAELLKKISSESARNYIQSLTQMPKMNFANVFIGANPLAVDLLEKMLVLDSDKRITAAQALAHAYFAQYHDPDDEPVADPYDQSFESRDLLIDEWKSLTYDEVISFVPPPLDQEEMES

Row | Ratio IC50 [1] | IC50 [2] [nM] | IC50 [3] [nM] | Ratio IC50 [4] | Compound
1 | 7.5 | 470 | 2 | 2.62 | CC(C)Nc1cc(-c2[nH]c([S+](C)[O-])nc2-c2ccc(F)cc2)ccn1 (racemic)
2 | 0.28 |  | 188 |  | CSc1nc(-c2ccc(F)cc2)c(-c2ccnc(NC(C)=O)c2)n1C
3 |  | 2980 |  |  | CSc1nc(-c2ccnc(NC(=O)Cc3ccc(F)cc3)c2)c(-c2ccc(F)cc2)[nH]1
4 | 2.55 | 550 | 29 | 3.09 | C[S@@+]([O-])c1nc(-c2ccc(F)cc2)c(-c2ccnc(NC3CCCCC3)c2)[nH]1
5 | 9.8 |  |  | 10.7 | CSc1nc(-c2ccc(F)cc2)c(-c2ccnc(NC3CCOCC3)c2)[nH]1
6 | 2.54 | 840 | 24 | 2.29 | CC(C)Nc1cc(-c2[nH]c([S@+](C)[O-])nc2-c2ccc(F)cc2)ccn1
7 | 3.05 |  |  | 8.5 | CC(C)[C@H](C)Nc1cc(-c2[nH]c([S@@+](C)[O-])nc2-c2ccc(F)cc2)ccn1
8 |  | 650 | 12 |  | CC(C)Sc1nc(-c2ccnc(NC3CCCCC3)c2)c(-c2ccc(F)cc2)[nH]1
9 |  | 750 | 36 |  | CC(C)[C@@H](C)Nc1cc(-c2nc([S@+](C)[O-])[nH]c2-c2ccc(F)cc2)ccn1
10 | 9.25 |  |  | 4.24 | CC(C)Nc1cc(-c2[nH]c([S@+]([O-])C(C)C)nc2-c2ccc(F)cc2)ccn1
11 |  |  | 161 |  | CC(=O)Nc1cc(-c2nc([S@@+](C)[O-])[nH]c2-c2ccc(F)cc2)ccn1
12 | 1.68 | 620 | 34 | 1.98 | C[S+]([O-])c1nc(-c2ccc(F)cc2)c(-c2ccnc(NC3CCCCC3)c2)[nH]1 (racemic)
13 | 1.16 | 5550 | 69 | 0.31 | C[S+]([O-])c1nc(-c2ccc(F)cc2)c(-c2ccnc(NC(=O)Cc3ccc(F)cc3)c2)[nH]1 (racemic)
14 | 1 | 6410 | 77 | 0.27 | C[S@@+]([O-])c1nc(-c2ccc(F)cc2)c(-c2ccnc(NC(=O)Cc3ccc(F)cc3)c2)[nH]1
15 | 0.028 |  | 1260 |  | CC(=O)Nc1cc(-c2c(-c3ccc(F)cc3)nc([S@+](C)[O-])n2C)ccn1
16 | 5 | 250 | 3 | 4.92 | CC(C)Nc1cc(-c2[nH]c([S+]([O-])C(C)C)nc2-c2ccc(F)cc2)ccn1 (racemic)
17 | 1.38 |  |  | 2.05 | C[S@+]([O-])c1nc(-c2ccc(F)cc2)c(-c2ccnc(NC3CCOCC3)c2)[nH]1
18 | 0.45 |  | 197 |  | CC(=O)Nc1cc(-c2[nH]c([S@+](C)[O-])nc2-c2ccc(F)cc2)ccn1
19 | 3.44 |  |  | 0.66 | CSc1nc(-c2ccc(F)cc2)c(-c2ccnc(NC(=O)Cc3ccc(F)cc3)c2)[nH]1
20 | 2.17 | 1080 | 18 | 1.72 | CC(C)[S+]([O-])c1nc(-c2ccc(F)cc2)c(-c2ccnc(NC3CCCCC3)c2)[nH]1 (racemic)
21 | 4.17 |  |  | 2.86 | CC(C)Sc1nc(-c2ccc(F)cc2)c(-c2ccnc(NC3CCCCC3)c2)[nH]1

Row | Ratio IC50 [1] | IC50 [2] [nM] | IC50 [3] [nM] | Ratio IC50 [4] | Compound
22 |  | 590 | 50 |  | C[S@+]([O-])c1nc(-c2ccnc(NC3CCCCC3)c2)c(-c2ccc(F)cc2)[nH]1
23 |  | 340 | 21 |  | CC(C)[S@+]([O-])c1nc(-c2ccnc(NC3CCCCC3)c2)c(-c2ccc(F)cc2)[nH]1
24 |  | 830 | 34 |  | C[S@+]([O-])c1nc(-c2ccnc(NC3CCOCC3)c2)c(-c2ccc(F)cc2)[nH]1
25 | 6.17 |  |  | 3.13 | CC(C)Nc1cc(-c2[nH]c([S@@+]([O-])C(C)C)nc2-c2ccc(F)cc2)ccn1
26 | 2.89 |  |  | 7.24 | CSc1nc(-c2ccc(F)cc2)c(-c2ccnc(NC3CCCCC3)c2)[nH]1
27 | 4.67 | 340 | 12 | 3.62 | C[S+]([O-])c1nc(-c2ccc(F)cc2)c(-c2ccnc(NC3CCOCC3)c2)[nH]1 (racemic)
28 | 1.12 | 10000 | 25 | 0.16 | C[C@H](Nc1cc(-c2[nH]c([S@@+](C)[O-])nc2-c2ccc(F)cc2)ccn1)c1ccccc1
29 | 0.53 | 6280 | 95 | 0.25 | C[C@H](Nc1cc(-c2[nH]c([S+](C)[O-])nc2-c2ccc(F)cc2)ccn1)c1ccccc1 (mixture of isomers)
30 | 1.48 |  |  | 2.08 | C[S@+]([O-])c1nc(-c2ccc(F)cc2)c(-c2ccnc(NC3CCCCC3)c2)[nH]1
31 |  |  | 168 |  | C[C@@H](Nc1cc(-c2nc([S@@+](C)[O-])[nH]c2-c2ccc(F)cc2)ccn1)c1ccccc1
32 |  | 7530 | 141 |  | C[S@+]([O-])c1nc(-c2ccnc(NC(=O)Cc3ccc(F)cc3)c2)c(-c2ccc(F)cc2)[nH]1
33 |  | 450 | 4 |  | CC(C)Nc1cc(-c2nc([S@+]([O-])C(C)C)[nH]c2-c2ccc(F)cc2)ccn1
34 | 0.49 |  |  |  | C[C@@H](Nc1cc(-c2[nH]c([S@@+](C)[O-])nc2-c2ccc(F)cc2)ccn1)c1ccccc1
35 |  | 610 | 6 |  | CC(C)Nc1cc(-c2nc([S@@+]([O-])C(C)C)[nH]c2-c2ccc(F)cc2)ccn1
36 | 2.11 |  | 37 |  | CSc1nc(-c2ccc(F)cc2)c(-c2ccnc(NC(C)=O)c2)[nH]1
37 |  | 790 | 11 |  | C[S@@+]([O-])c1nc(-c2ccnc(NC3CCOCC3)c2)c(-c2ccc(F)cc2)[nH]1
38 | 18 | 130 | 2 | 12 | CSc1nc(-c2ccc(F)cc2)c(-c2ccnc(NC(C)C)c2)[nH]1
39 | 0.042 |  | 1070 |  | CC(=O)Nc1cc(-c2c(-c3ccc(F)cc3)nc([S+](C)[O-])n2C)ccn1 (racemic)
40 | 1.18 | 1340 | 61 | 0.92 | CC(C)[C@@H](C)Nc1cc(-c2[nH]c([S+](C)[O-])nc2-c2ccc(F)cc2)ccn1 (mixture of isomers)
41 | 2.32 | 900 | 31 | 1.72 | CC(C)[C@@H](C)Nc1cc(-c2[nH]c([S@@+](C)[O-])nc2-c2ccc(F)cc2)ccn1
42 | 0.55 |  |  | 0.23 | C[S@+]([O-])c1nc(-c2ccc(F)cc2)c(-c2ccnc(NC(=O)Cc3ccc(F)cc3)c2)[nH]1

Row | Ratio IC50 [1] | IC50 [2] [nM] | IC50 [3] [nM] | Ratio IC50 [4] | Compound
43 |  | 5520 | 45 |  | C[C@H](Nc1cc(-c2nc([S@+](C)[O-])[nH]c2-c2ccc(F)cc2)ccn1)c1ccccc1
44 | 0.035 |  | 1030 |  | CC(=O)Nc1cc(-c2c(-c3ccc(F)cc3)nc([S@@+](C)[O-])n2C)ccn1
45 | 1.8 | 180 | 40 | 8.67 | CSc1nc(-c2ccc(F)cc2)c(-c2ccnc(N[C@H](C)C(C)C)c2)[nH]1
46 | 3.41 | 150 | 17 | 10.4 | CC(C)[C@H](C)Nc1cc(-c2[nH]c([S+](C)[O-])nc2-c2ccc(F)cc2)ccn1 (mixture of isomers)
47 | 4.45 |  |  | 2.15 | C[S@@+]([O-])c1nc(-c2ccc(F)cc2)c(-c2ccnc(NC3CCOCC3)c2)[nH]1
48 | 2.15 | 250 | 27 | 6.8 | CC(C)[C@H](C)Nc1cc(-c2[nH]c([S@+](C)[O-])nc2-c2ccc(F)cc2)ccn1
49 |  | 170 | 27 |  | CSc1nc(-c2ccnc(NC3CCCCC3)c2)c(-c2ccc(F)cc2)[nH]1
50 | 1.62 |  |  | 5.62 | CC(C)[S@+]([O-])c1nc(-c2ccc(F)cc2)c(-c2ccnc(NC3CCCCC3)c2)[nH]1
51 | 0.42 |  | 200 |  | C[C@@H](Nc1cc(-c2[nH]c([S@+](C)[O-])nc2-c2ccc(F)cc2)ccn1)c1ccccc1
52 | 0.28 |  | 207 |  | C[C@@H](Nc1cc(-c2[nH]c([S+](C)[O-])nc2-c2ccc(F)cc2)ccn1)c1ccccc1 (mixture of isomers)
53 |  | 180 |  |  | CSc1nc(-c2ccnc(NC3CCOCC3)c2)c(-c2ccc(F)cc2)[nH]1
54 | 3.75 | 120 | 4 | 19.4 | CC(C)Nc1cc(-c2[nH]c(SC(C)C)nc2-c2ccc(F)cc2)ccn1
55 | 1.81 | 50 | 26 | 31.2 | CSc1nc(-c2ccc(F)cc2)c(-c2ccnc(N[C@@H](C)C(C)C)c2)[nH]1
56 |  | 530 | 12 |  | CC(C)Nc1cc(-c2nc([S@@+](C)[O-])[nH]c2-c2ccc(F)cc2)ccn1
57 | 0.62 |  |  | 0.28 | C[C@H](Nc1cc(-c2[nH]c([S@+](C)[O-])nc2-c2ccc(F)cc2)ccn1)c1ccccc1
58 | 5.08 |  |  | 3.62 | CC(C)Nc1cc(-c2[nH]c([S@@+](C)[O-])nc2-c2ccc(F)cc2)ccn1
59 | 0.1 |  | 403 |  | CC(=O)Nc1cc(-c2[nH]c([S+](C)[O-])nc2-c2ccc(F)cc2)ccn1 (racemic)
60 | 0.55 |  |  |  | CC(=O)Nc1cc(-c2[nH]c([S@@+](C)[O-])nc2-c2ccc(F)cc2)ccn1
61 | 3.09 | 250 | 11 | 7.64 | CC(C)[S@@+]([O-])c1nc(-c2ccc(F)cc2)c(-c2ccnc(NC3CCCCC3)c2)[nH]1
62 |  | 200 | 19 |  | CC(C)[C@H](C)Nc1cc(-c2nc([S@@+](C)[O-])[nH]c2-c2ccc(F)cc2)ccn1
63 | 1.44 |  |  | 2.07 | CC(C)[C@@H](C)Nc1cc(-c2[nH]c([S@+](C)[O-])nc2-c2ccc(F)cc2)ccn1
